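Following 48 hours of exposure in 96-well plates, responses at five concentrations were used to interpolate endpoints linearly. The concentration for 50% growth inhibition is given as GI50.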 Activity calls are given as the source filed them. Cut-off read from the data, not from the text of the source: active = GI50 up to about 1.1 µM and inactive = higher.
Key:
Test in all cases: NCI anticancer screen, dose series, 48 h
MDA-N = system: MDA-N
MCF7 = system: MCF7
COLO 205 = system: COLO 205
SK-MEL-2 = system: SK-MEL-2
SNB-19 = system: SNB-19
NCI/ADR-RES = system: NCI/ADR-RES
Malme-3M = system: Malme-3M
T47D = system: T47D
NCI-H522 = system: NCI-H522
SF-268 = system: SF-268
BT-549 = system: BT-549
HCC 2998 = system: HCC 2998
CAKI-1 = system: CAKI-1
SNB-75 = system: SNB-75
KM12 = system: KM12
HL-60 = system: HL-60
IGROV-1 = system: IGROV-1
HCT-15 = system: HCT-15
OVCAR-8 = system: OVCAR-8
DU-145 = system: DU-145

SMILES	GI50 (MDA-N)	GI50 (MCF7)	GI50 (COLO 205)	GI50 (SK-MEL-2)	GI50 (SNB-19)	GI50 (NCI/ADR-RES)	GI50 (Malme-3M)	GI50 (T47D)	GI50 (NCI-H522)	GI50 (SF-268)	GI50 (BT-549)	GI50 (HCC 2998)	GI50 (CAKI-1)	GI50 (SNB-75)	GI50 (KM12)	GI50 (HL-60)	GI50 (IGROV-1)	GI50 (HCT-15)	GI50 (OVCAR-8)	GI50 (DU-145)
Nc1ccc(-c2nc3ccccc3s2)cc1I	> 100 µM (inactive)	< 0.0116 µM (active)	36 µM (inactive)	> 100 µM (inactive)	54.2 µM (inactive)	> 100 µM (inactive)	99.3 µM (inactive)	18.7 µM (inactive)	31.1 µM (inactive)	> 33.5 µM (inactive)	> 78 µM (inactive)	5.06 µM (inactive)	> 100 µM (inactive)	41.9 µM (inactive)	52.5 µM (inactive)	24.2 µM (inactive)	0.0107 µM (active)	44.3 µM	> 96.2 µM (inactive)	> 100 µM (inactive)
Clc1cc2ncn(C3CCCO3)c2cc1Cl (stereo not given)	> 100 µM (inactive)	> 100 µM (inactive)	> 100 µM (inactive)	> 100 µM (inactive)	> 100 µM (inactive)	99.8 µM (inactive)	> 100 µM (inactive)	66.2 µM (inactive)	24.5 µM (inactive)	99.3 µM (inactive)	19.5 µM (inactive)	62.8 µM (inactive)	58.1 µM (inactive)	26.4 µM (inactive)	28.9 µM (inactive)	78.9 µM (inactive)	17.3 µM (inactive)	> 100 µM	77.8 µM (inactive)	> 100 µM (inactive)
CCOC(=O)C(NC(=O)CC)(Nc1ccc(F)c(Cl)c1)C(F)(F)F (stereo not given)	> 100 µM (inactive)	> 100 µM (inactive)	> 100 µM (inactive)	> 70 µM (inactive)	> 100 µM (inactive)	78.2 µM (inactive)	> 100 µM (inactive)	> 100 µM (inactive)	> 100 µM (inactive)	> 100 µM (inactive)	> 100 µM (inactive)	> 100 µM (inactive)	> 100 µM (inactive)	> 100 µM (inactive)	35.8 µM (inactive)	> 36.2 µM (inactive)	> 100 µM (inactive)	> 83.4 µM	> 100 µM (inactive)	> 100 µM (inactive)
CO/C(N)=C(C#N)/N=C/c1ccsc1	28.5 µM (inactive)	32.5 µM (inactive)	36.6 µM (inactive)	37.3 µM (inactive)	> 100 µM (inactive)	> 100 µM (inactive)	40.6 µM (inactive)	68.4 µM (inactive)	23.9 µM (inactive)	44.7 µM (inactive)	20.4 µM (inactive)	> 100 µM (inactive)	37.2 µM (inactive)	56 µM (inactive)	60.7 µM (inactive)	13.1 µM (inactive)	52.6 µM (inactive)	34.3 µM	59 µM (inactive)	42.4 µM (inactive)
COC1=CC(=O)c2c(ccc3ncnc(N)c23)C1=O	0.288 µM (active)	1.54 µM (inactive)	3.58 µM (inactive)	3.03 µM (inactive)	2.38 µM (inactive)	2.31 µM (inactive)	2.63 µM (inactive)	1.11 µM (active)	2.42 µM (inactive)	2.47 µM (inactive)	1.79 µM (inactive)	6.03 µM (inactive)	1.36 µM (inactive)	3.57 µM (inactive)	4.41 µM (inactive)	0.57 µM (active)	1.73 µM (inactive)	1.99 µM	2.11 µM (inactive)	1.82 µM (inactive)
O=C(O)CCCSc1ccccc1	> 100 µM (inactive)	> 100 µM (inactive)	> 100 µM (inactive)	> 100 µM (inactive)	> 100 µM (inactive)	> 100 µM (inactive)	> 100 µM (inactive)	> 100 µM (inactive)	> 100 µM (inactive)	> 100 µM (inactive)	> 100 µM (inactive)	> 100 µM (inactive)	> 100 µM (inactive)	> 100 µM (inactive)	> 100 µM (inactive)	> 100 µM (inactive)	> 100 µM (inactive)	> 100 µM	> 100 µM (inactive)	> 100 µM (inactive)
CCCCNC(=O)c1cc2c(cc1Cl)Sc1nccn1S2(=O)=O	61.4 µM (inactive)	66.4 µM (inactive)	60.7 µM (inactive)	70 µM (inactive)	> 100 µM (inactive)	79.6 µM (inactive)	> 100 µM (inactive)	64 µM (inactive)	51.8 µM (inactive)	> 100 µM (inactive)	78 µM (inactive)	> 100 µM (inactive)	18.7 µM (inactive)	17.5 µM (inactive)	> 100 µM (inactive)	41.3 µM (inactive)	> 100 µM (inactive)	92.9 µM	> 100 µM (inactive)	> 100 µM (inactive)

Reference: ChEMBL document CHEMBL1201862, “PubChem BioAssay data set” (2004)
